Where only a bound is given, the exact number is not on record here.

We go through 20 compounds from patent US11524960B2, “Heterobicyclic inhibitors of MAT2A and methods of use for treating cancer” (AGIOS PHARMACEUTICALS, INC., priority 2018, dated 2022).

The test system of assay [1] is HCT116 MTAP+/+. The assay is described as follows: Inhibition of cellular proliferation (Cell Titer Glo), HCT116 MTAP+/+. The following applies: Homo sapiens, HCT-116, 96 h, 4 days, IC50 score, read-out: 4 Day Relative Growth Inhibition (MTAP +/+; Example 277). It counts as cell-based, human. Summed up:
(§1)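 Proliferation was read as ATP luminescence (Cell Titer Glo) after a 4-day, 37 °C exposure of HCT116 cells differing only in MTAP deletion status. Dosing was 10 points, 3-fold steps, added 24 h post-plating; signal minus blank, relative to 0.2% DMSO control wells, was plotted against log molar concentration.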

The test system of assay [2] is SAM in HCT116 human colon carcinoma cell line engineered to delete the MTAP gene (MTAP −/−). Put plainly: Cellular assay of target engagement (SAM) by LC-MS/MS. The format is cell-based. The following applies: Homo sapiens, HCT-116, 72 h, IC50 score, read-out: Cell 72 h SAM Inhibition (MTAP −/−; Example 276). A digest of the protocol: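 Intracellular SAM, the MAT2A product, was measured by quantitative LC-MS/MS against a d3-SAM standard in methanol/acetic acid extracts. Extracts came from HCT116 MTAP −/− cells exposed for 72 h at 37 °C to a ten-point, threefold dilution series of compound, added one day after seeding.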

The target in assay [3] is T1, MAT2A homodimer (Homo sapiens, UniProt P31153).
T1 construct: inferred from Ni sepharose purification and imidazole elution; made in house; host or cells: Sf9 insect cells, recombinant baculovirus (Bac to Bac, pFASTBAC1)
Put plainly: Biochemical assay: inhibition of MAT2A (phosphate release, PiColorLock Gold). The following applies: MAT2A IC50 score; read-out: Enzyme Inhibition (Example 275). Summed up: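 Phosphate formed alongside SAM was read with PiColorLock Gold and quantified against a potassium phosphate standard curve. Reactions ran 60 min at 25 °C after adding a substrate mix of 500 μM ATP and 400 μM L-methionine (mix concentrations). Compound had first been preincubated 60 min with recombinant Sf9-derived MAT2A homodimer ([…]) in pH 8.0 Tris buffer containing MgCl2, KCl, EDTA and BSA.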

Assay [4] concerns HCT116 MTAP−/−. Put plainly: Inhibition of cellular proliferation (Cell Titer Glo), HCT116 MTAP−/−. The format is cell-based, human. The settings on record: Homo sapiens, HCT-116, 96 h, 4 days, IC50 score, read-out: 4 Day Relative Growth Inhibition (MTAP −/−; Example 277). Summed up:
as §1

T1 sequence (P31153 whole entry): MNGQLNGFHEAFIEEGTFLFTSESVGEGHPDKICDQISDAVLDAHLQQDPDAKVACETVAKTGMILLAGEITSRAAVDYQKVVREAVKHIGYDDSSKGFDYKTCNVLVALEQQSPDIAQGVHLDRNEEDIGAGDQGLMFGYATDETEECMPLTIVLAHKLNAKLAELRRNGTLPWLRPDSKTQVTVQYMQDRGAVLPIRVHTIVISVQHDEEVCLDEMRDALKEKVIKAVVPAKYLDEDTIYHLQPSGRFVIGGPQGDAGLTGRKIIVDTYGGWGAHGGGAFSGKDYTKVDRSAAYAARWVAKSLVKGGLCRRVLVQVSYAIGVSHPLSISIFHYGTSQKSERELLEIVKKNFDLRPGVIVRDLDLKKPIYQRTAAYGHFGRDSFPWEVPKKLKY

On to `CCOc1ccc2cn(-c3ccc4nn(C)cc4c3)c(=O)c(-c3ccc(Br)cc3)c2n1` [Example 109-A], for which the IC50 in assay [1] is 100 to 10000 nM; in assay [2] it was under 100 nM; in assay [3], under 100 nM; in assay [4] it was under 100 nM.

Regarding `Cn1cc2cc(-n3cc4cnc(OCC(F)(F)F)nc4c(-c4ccc(Cl)cc4)c3=O)ccc2n1` [Example 262, 8-(4-chlorophenyl)-6-(2-methyl-2H-indazol-5-yl)-2-(2,2,2-trifluoroethoxy)pyrido[4,3-d]pyrimidin-7(6H)-one], the IC50 was over 10000 nM in assay [1], under 100 nM in assay [2], under 100 nM in assay [3] and 100 to 10000 nM in assay [4].

Consider `COc1ccc(-n2cc3cnc(NCC(F)(F)F)nc3c(-c3ccc(C4CC4)nc3)c2=O)cc1` [Example 198, 8-(6-cyclopropylpyridin-3-yl)-6-(4-methoxyphenyl)-2-((2,2,2-trifluoroethyl)amino)pyrido[4,3-d]pyrimidin-7(6)-one], for which the IC50 in assay [1] was over 10000 nM; in assay [2], 100 to 1000 nM; in assay [3], under 100 nM; in assay [4], 100 to 10000 nM.

`CCOc1ccc2cn(-c3ccc4nn(C)cc4c3)c(=O)c(-c3ccc(-c4nc[nH]n4)cc3)c2n1` [Example 222, 8-(4-(1H-1,2,4-triazol-3-yl)phenyl)-2-ethoxy-6-(2-methyl-2H-indazol-5-yl)-1,6-naphthyridin-7(6H)-one]: the IC50 is over 10000 nM in assay [1], under 100 nM in assay [2], under 100 nM in assay [3] and 100 to 10000 nM in assay [4].

Consider `Cn1cc2cc(-n3cc4cnc(NCC(F)F)nc4c(-c4ccc(Cl)cc4)c3=O)ccc2n1` [Example 102-A], for which the IC50 is 100 to 10000 nM in assay [1], under 100 nM in assay [2], under 100 nM in assay [3] and under 100 nM in assay [4].

For `[2H]C([2H])([2H])Oc1ccc(-c2c(=O)n(-c3ccc4nn(C)cc4c3)cc3ccc(OCC(F)F)nc23)cc1` [Example 115-A], the IC50 in assay [1] is 100 to 10000 nM; in assay [2] it was under 100 nM; in assay [3] it was under 100 nM; in assay [4] it was under 100 nM.

Regarding `COc1ccc(-c2c(=O)n(-c3ccc4nccnc4c3)cc3cnc(NCC(F)(F)F)nc23)cc1` [Example 144, 8-(4-methoxyphenyl)-6-(quinoxalin-6-yl)-2-((2,2,2-trifluoroethyl)amino)pyrido[4,3-d]pyrimidin-7(6H)-one], the IC50 in assay [1] is over 10000 nM; in assay [2], 100 to 1000 nM; in assay [3], under 100 nM; in assay [4], 100 to 10000 nM.

Take `CCOc1ccc2cn(-c3ccc4ncncc4c3)c(=O)c(-c3ccc(Cl)cc3)c2n1` [Example 246, 8-(4-chlorophenyl)-2-ethoxy-6-(quinazolin-6-yl)-1,6-naphthyridin-7(6H)-one]: the IC50 in assay [1] was 100 to 10000 nM; in assay [2], 100 to 1000 nM; in assay [3], under 100 nM; in assay [4], 100 to 10000 nM.

As for `CCOc1ccc2cn(-c3ccc4ncccc4c3)c(=O)c(-c3ccc(C4CC4)nc3)c2n1` [Example 231, 8-(6-cyclopropylpyridin-3-yl)-2-ethoxy-6-(quinolin-6-yl)-1,6-naphthyridin-7(6H)-one], the IC50 in assay [1] was over 10000 nM; in assay [2], under 100 nM; in assay [3], under 100 nM; in assay [4], 100 to 10000 nM.

For the compound `O=c1c(-c2ccc(Br)cc2)c2nc(NCC(F)(F)F)ncc2cn1-c1ccc2ncccc2c1` [Example 180, 8-(4-bromophenyl)-6-(quinolin-6-yl)-2-((2,2,2-trifluoroethyl)amino)pyrido[4,3-d]pyrimidin-7(6H)-one], the IC50 is over 10000 nM in assay [1], under 100 nM in assay [2], under 100 nM in assay [3] and under 100 nM in assay [4].

Turning to `CCOc1ccc2cn(-c3ccc4ncccc4c3)c(=O)c(-c3ccc(OC(F)F)nc3)c2n1` [Example 232, 8-(6-(difluoromethoxy)pyridin-3-yl)-2-ethoxy-6-(quinolin-6-yl)-1,6-naphthyridin-7(6H)-one], the IC50 is over 10000 nM in assay [1], under 100 nM in assay [2], under 100 nM in assay [3] and under 100 nM in assay [4].

Turning to `Cn1cc2cc(-n3cc4ncc(OCC(F)F)nc4c(-c4ccc(OC(F)F)cc4)c3=O)ccc2n1` [Example 139-A, 2-(2,2-difluoroethoxy)-8-(4-(difluoromethoxy)phenyl)-6-(2-methyl-2H-indazol-5-yl)pyrido[3,4-b]pyrazin-7(6H)-one], the IC50 is 100 to 10000 nM in assay [1], under 100 nM in assay [2], under 100 nM in assay [3] and under 100 nM in assay [4].

Take `CCOc1ccc2cn(-c3ccc4nnccc4c3)c(=O)c(-c3ccc(Cl)cc3)c2n1` [Example 245, 8-(4-chlorophenyl)-6-(cinnolin-6-yl)-2-ethoxy-1,6-naphthyridin-7(6H)-one]: the IC50 in assay [1] was over 10000 nM; in assay [2], under 100 nM; in assay [3] it was under 100 nM; in assay [4], 100 to 10000 nM.

With `Cn1cnc2ccc(-n3cc4ccc(OCC(F)(F)F)nc4c(-c4ccc(OC(F)(F)F)nc4)c3=O)cc21` [Example 112-A], the IC50 in assay [1] is 100 to 10000 nM; in assay [2], under 100 nM; in assay [3], under 100 nM; in assay [4], under 100 nM.

As for `COc1ccc(-c2c(=O)n(-c3ccc4c(c3)CCO4)cc3cnc(NCC(F)(F)F)nc23)cc1` [Example 147, 6-(2,3-dihydrobenzofuran-5-yl)-8-(4-methoxyphenyl)-2-((2,2,2-trifluoroethyl)amino)pyrido[4,3-d]pyrimidin-7(6H)-one], the IC50 in assay [1] was over 10000 nM; in assay [2], 100 to 1000 nM; in assay [3] it was under 100 nM; in assay [4] it was 100 to 10000 nM.

As to `COc1ccc(-c2c(=O)n(-c3ccc(OC)cc3)cc3cnc(NCC(F)(F)F)nc23)cc1` [Example 200, 6,8-bis(4-methoxyphenyl)-2-(2,2,2-trifluoroethylamino)pyrido[4,3-d]pyrimidin-7(6H)-one], the IC50 in assay [1] was 100 to 10000 nM; in assay [2], 100 to 1000 nM; in assay [3] it was under 100 nM; in assay [4], 100 to 10000 nM.

With `Cn1cc2cc(-n3cc4ccc(OCC(F)(F)F)nc4c(-c4ccc(OC(F)F)cc4)c3=O)ccc2n1` [Example 256, 8-(4-(difluoromethoxy)phenyl)-6-(2-methyl-2H-indazol-5-yl)-2-(2,2,2-trifluoroethoxy)-1,6-naphthyridin-7(6H)-one], the IC50 in assay [1] was 100 to 10000 nM; in assay [2], under 100 nM; in assay [3] it was under 100 nM; in assay [4], 100 to 10000 nM.

As to `Cn1cnc2ccc(-n3cc4ccc(OCC(F)(F)F)nc4c(-c4ccc(OC(F)F)cc4)c3=O)cc21` [Example 257, 8-(4-(difluoromethoxy)phenyl)-6-(1-methyl-1H-benzo[d]imidazol-6-yl)-2-(2,2,2-trifluoroethoxy)-1,6-naphthyridin-7(6H)-one], the IC50 in assay [1] is 100 to 10000 nM; in assay [2], under 100 nM; in assay [3], under 100 nM; in assay [4], under 100 nM.

For `[2H]C([2H])([2H])Oc1ccc(-c2c(=O)n(-c3ccc4nn(C)cc4c3)cc3ccc(OCC(F)(F)F)nc23)cc1` [Example 116-A], the IC50 in assay [1] is over 10000 nM; in assay [2], under 100 nM; in assay [3], under 100 nM; in assay [4], under 100 nM.

Consider `CCOc1ccc2cn(-c3ccc4nn(C)cc4c3)c(=O)c(-c3cnc(C(F)(F)F)nc3)c2n1` [Example 119-A], for which the IC50 in assay [1] was 100 to 10000 nM; in assay [2] it was under 100 nM; in assay [3] it was under 100 nM; in assay [4], under 100 nM.
